Test results reported in patent US4525360A, “Anti-psychotic phenylindene derivatives and acid addition salts thereof” (Kefalas A/S, priority 1982, dated 1985).
Structures can show the parent of a compound that is named as a salt. Where two headings read alike, the source gives them in different places.

Experiments:
methylphenidate = test: Methylphenidate antagonism, mice i.p.; format: in vivo; details: Mus musculus, ip
Method: Methylphenidate antagonism (ED50 μmol/kg i.p.)
Perspex observation cages without bottom and lid, consisting of 5 sections each measuring 12×25×30 cm.
Two hours after injection of test substance, methylphenidate, 60 mg/kg, is injected s.c. After administration of methylphenidate the mice are placed in the observation cages, 2 in each cage, where they remain for exactly 1 hour. The cages are placed on corrugated paper, the corrugations facing upwards. It is examined whether the mice have been biting the corrugated paper or not.
The result is stated in fractions: 0/3, 1/3, 2/3 and 3/3 where 0, 1, 2 and 3 are the number of pairs which have not been biting on receipt of the dose in question.

5-HT, rat fundus strip = test: 5-HT antagonism, rat fundus strip; details: read-out: 5HT rat-fundus-strip IC50
Method: 5-HT antagonism, rat fundus strip
5-hydroxytryptamine (5-HT).
Rats are killed by a blow on the head and exsanguinated. The stomach fundus is removed and carefully cleaned with Krebs solution at 30° C. The fundus is then stretched over a rounded end of a plastic rod about the thickness of a pencil, whereby the longitudinal direction of the muscle fibers is visible. The fundus is halved by carefully cutting in the central line and in the direction of these fibres. Along this incision two strips with a length of 15-25 mm and with width 1.5-2.5 mm are cut, one from each half of the fundus. The mucosa is then carefully removed. A thread is attached to each end of a strip. One thread is fixed to a pin in the bottom of the organ bath and the other thread is fixed to an isotonic transducer. The strip is kept under a tone of 1.5 to 2.0 g. […] Concentration response curves to 5-HT are obtained by adding 5-HT to the bath in increasing concentrations (0.1 ml of 10^-9 M resulting in 1.0×10^-11 M in the bath, 0.2 ml of 10^-9 M resulting in 3.0×10^-11 M, 0.1 ml of 10^-8 M resulting in about 1×10^-10 M, 0.2 ml of 10^-8 M resulting in about 3×10^-10 M--0.2 ml of 10^-4 resulting in about 3×10^-6 M in the bath). Each concentration of 5-HT is allowed to exert its maximal effect (1-10 min) before the next is added. When the maximal response is reached the tissue is carefully washed. The test substance is added to the bath for 10 min. before examining its effect on a new cumulative 5-HT concentration response curve. From the control concentration effect curve the Km for 5-HT is calculated.
The results are recorded as mean percentage inhibition.
Substrate concentration for 5-HT: 1.0×10^-9 M to 1.0×10^-8 M.
Michaelis-Menten constant for 5-HT is estimated each time.

[1] = Catalepsy wire mesh, rat, max.; format: in vivo, rats; details: po, read-out: Catalep. ED50 (po)
Method: Catalepsy wire mesh, rat, max. (ED50 μmol/kg p.o.)
A vertical wire netting (50 cm×49 cm). The meshes (openings) of the netting are square (1 cm×1 cm). The wire diameter is 2 mm.
The animals are labeled and used in groups of five. The test substance is administered orally (p.o.) at 4 dose levels selected from a fixed dose scale.
The animals are placed in the middle of the vertical wire netting 60, 120, 180, 240, 300 and 360 minutes after administration of the test compound. The animals are considered cataleptic when they remain immobile during a period of 15 seconds. This cataleptic reaction is designated +.
If the rats are "atonic" and passively slide down the wire mesh they are considered not cataleptic. If the animals climb up and down the wire mesh they are nor cataleptic. In both situations the designation - is used.

[2] = Table 1, mice, i.p., 2 h before methylphenidate 60 mg/kg s.c., read-out: MePh Antag. ED50 (ip)
[3] = 10 min, Table 1, rat fundus strip in vitro, 10 min pre-exposure
[4] = Table 2, hydroxyindane intermediates, mice, i.p., read-out: MePh Antag. ED50
[5] = Table 1, rat, p.o., max. effect within 6 h
[6] = read-out: MePh Antag. ED50 (ip)

| IC50 (5-HT, rat fundus strip; [3]) | SMILES | ED50 (methylphenidate; [2]) | ED50 [1, 5] | other results |
| --- | --- | --- | --- | --- |
| 500 nM | COc1ccc2c(c1)C(C1=CCN(CCO)CC1)=CC2c1ccc(F)cc1 (stereo not drawn) [Lu 20-021, 3-(4'-Fluorophenyl)-1-(1-hydroxyethyl-1,2,3,6-tetrahydropyrid-4-yl)-6-methoxy-1-indene, hydrobromide] | 11.6 µmol/kg |  |  |
|  | OC1(C2CCNCC2)CC(c2ccc(F)cc2)c2ccc(F)cc21 (stereo not drawn) [Lu 19-139, 6-Fluoro-3-(4'-fluorophenyl)-1-hydroxy-1-(4-piperidyl)indane] |  |  | ED50 (methylphenidate; [4]): 15.6 µmol/kg |
|  | Cc1ccc2c(c1)C(O)(C1=CCN(C)CC1)CC2c1ccc(F)cc1 (stereo not drawn) [Lu 19-131, 3-(4'-Fluorophenyl)-1-hydroxy-6-methyl-1-(1-methyl-1,2,3,6-tetrahydropyrid-4-yl)indane] |  |  | ED50 (methylphenidate; [4]): 14.8 µmol/kg |
| 7500 nM | CN1CCC(=C2C=C(c3ccc(F)cc3)c3ccc(F)cc32)CC1 [Lu 19-151, 6-Fluoro-3-(4'-fluorophenyl)-1-(1-methyl-4-piperidylidenyl)-2-indene, hydrochloride] | 32.5 µmol/kg | 32.9 µmol/kg |  |
| 85 nM | Cc1ccc2c(c1)C(C1=CCN(C)CC1)=CC2c1ccc(F)cc1 (stereo not drawn) [Lu 20-041, 3-(4'-Fluorophenyl)-6-methyl-1-(1-methyl-1,2,3,6-tetrahydropyrid-4-yl)-1-indene, hydrobromide] | 0.14 µmol/kg | 1.6 µmol/kg |  |
| 1100 nM | CN1CCC(C2C=C(c3ccc(F)cc3)c3ccc(F)cc32)CC1 (stereo not drawn) [Lu 19-004, 6-Fluoro-3-(4'-fluorophenyl)-1-(1-methyl-4-piperidyl)-2-indene] | 12.2 µmol/kg | 64.2 µmol/kg |  |
| 62 nM | Cc1ccc2c(c1)C(C1=CCN(C)CC1)C=C2c1ccc(F)cc1 (stereo not drawn) [Lu 20-040, 3-(4'-Fluorophenyl)-6-methyl-1-(1-methyl-1,2,3,6-tetrahydropyrid-4-yl)-2-indene, hydrobromide] | 0.7 µmol/kg | 5.5 µmol/kg |  |
|  | CN(C)CCCN1c2ccccc2Sc2ccc(Cl)cc21 [Chlorpromazine, reference compound] |  |  | ED50 ([1]; Rattus norvegicus, 6 h): 70 µmol/kg; IC50 (5-HT, rat fundus strip; Rattus norvegicus, 10 min): > 5000 nM |
| 42 nM | Cc1ccc2c(c1)C(C1CCN(C)CC1)=CC2c1ccc(F)cc1 (stereo not drawn) [Lu 20-048, 3-(4'-Fluorophenyl)-6-methyl-1-(1-methyl-4-piperidyl)-1-indene, hydrobromide] | 0.53 µmol/kg | 3.4 µmol/kg |  |
| 1900 nM | Cc1ccc2c(c1)C(C1CCN(CCO)CC1)C=C2c1ccc(F)cc1 (stereo not drawn) [Lu 20-039, 3-(4'-Fluorophenyl)-1-(1-hydroxyethyl-4-piperidyl)-6-methyl-2-indene, hydrobromide] | 93 µmol/kg | > 93 µmol/kg |  |
|  | CN1CC=C(C2=CC(c3ccc(F)cc3)c3ccc(Cl)cc32)CC1 (stereo not drawn) [Lu 20-079, 6-Chloro-3-(4'-fluorophenyl)-1-(1-methyl-1,2,3,6-tetrahydropyrid-4-yl)-1-indene, hydrobromide] | 3 µmol/kg |  |  |
| 28 nM | Cc1ccc2c(c1)C(C1=CCN(CCO)CC1)C=C2c1ccc(F)cc1 (stereo not drawn) [Lu 20-038, 3-(4'-Fluorophenyl)-1-(1-hydroxyethyl-1,2,3,6-tetrahydropyrid-4-yl)-6-methyl-2-indene, hydrobromide] | 0.89 µmol/kg | 3.8 µmol/kg |  |
| 120 nM | O=C1NCCN1CCN1CCC(C2=CC(c3ccc(F)cc3)c3ccccc32)CC1 (stereo not drawn) [Lu 20-078, 3-(4'-Fluorophenyl)-1-(1-(2-imidazolidinon-1-ylethyl)-4-piperidyl)-1-indene, oxalate] | 16.5 µmol/kg |  |  |
|  | OCCN1CCN(CCCN2c3ccccc3Sc3ccc(C(F)(F)F)cc32)CC1 [Fluphenazine, reference compound] |  |  | ED50 (methylphenidate; [6]): 0.07 µmol/kg; ED50 ([1]; Rattus norvegicus, 6 h): 0.55 µmol/kg |
| 240 nM | CN1CC=C(C2=CC(c3ccc(F)cc3)c3ccc(F)cc32)CC1 (stereo not drawn) [Lu 20-025, 6-Fluoro-3-(4'-fluorophenyl)-1-(1-methyl-1,2,3,6-tetrahydropyrid-4-yl)-1-indene, hydrobromide] | 7.6 µmol/kg | 5.3 µmol/kg |  |
| 200 nM | CN1CCC(C2=CC(c3ccc(F)cc3)c3ccc(F)cc32)CC1 (stereo not drawn) [Lu 20-028, 6-Fluoro-3-(4'-fluorophenyl)-1-(1-methyl-4-piperidyl)-1-indene, hydrobromide] | 0.78 µmol/kg | 6.2 µmol/kg |  |
|  | CC(C)c1ccc2c(c1)C(C1CCN(CCO)CC1)=CC2c1ccc(F)cc1 (stereo not drawn) [Lu 20-109, 3-(4'-Fluorophenyl)-1-(1-hydroxyethyl-4-piperidyl)-6-(2-propyl)-1-indene, hydrochloride] | 1.1 µmol/kg |  |  |
| 330 nM | OCCN1CC=C(C2=CC(c3ccc(F)cc3)c3ccc(F)cc32)CC1 (stereo not drawn) [Lu 19-157, 6-Fluoro-3-(4'-fluorophenyl)-1-(1-hydroxyethyl-1,2,3,6-tetrahydropyrid-4-yl)-1-indene, hydrobromide] | 15.8 µmol/kg | 55.3 µmol/kg |  |
|  | Cc1ccc2c(c1)C(C1CCN(CCN3CCOC3=O)CC1)=CC2c1ccc(F)cc1 (stereo not drawn) [Lu 21-002, 3-(4'-Fluorophenyl)-6-methyl-1-(1-(2-oxazolidinon-3-ylethyl)-4-piperidyl)-1-indene, trifluoroacetate] | 1.7 µmol/kg |  |  |
| 22 nM | Cc1ccc2c(c1)C(C1CCN(CCN3CCNC3=O)CC1)=CC2c1ccc(F)cc1 (stereo not drawn) [Lu 20-064, 3-(4'-Fluorophenyl)-1-(1-(2-imidazolidinon-1-ylethyl)-4-piperidyl)-6-methyl-1-indene, oxalate] | 0.86 µmol/kg | 6.7 µmol/kg |  |
|  | Cc1ccc2c(c1)C(O)(C1=CCN(CCO)CC1)CC2c1ccc(F)cc1 (stereo not drawn) [Lu 19-154, 3-(4'-Fluorophenyl)-1-hydroxy-1-(1-hydroxyethyl-1,2,3,6-tetrahydropyrid-4-yl)-6-methylindane] |  |  | ED50 (methylphenidate; [4]): 6.2 µmol/kg; IC50 (5-HT, rat fundus strip; Table 2, hydroxyindane intermediates, rat fundus strip in vitro): 5.4 nM |
|  | O=C1NCCN1CCN1CCC(C2=CC(c3ccc(F)cc3)c3ccc(F)cc32)CC1 (stereo not drawn) [Lu 20-087, 6-Fluoro-3-(4'-fluorophenyl)-1-(1-(2-imidazolidinon-1-ylethyl)-4-piperidyl)-1-indene, oxalate] | 10.8 µmol/kg |  |  |
| 5000 nM | CC(C)c1ccc2c(c1)C(C1=CCN(C)CC1)=CC2c1ccc(F)cc1 (stereo not drawn) [Lu 20-099, 3-(4'-Fluorophenyl)-1-(1-methyl-1,2,3,6-tetrahydropyrid-4-yl)-6-(2-propyl)-1-indene, hydrobromide] | 5.6 µmol/kg |  |  |
| 160 nM | COc1ccc2c(c1)C(C1CCN(CCO)CC1)=CC2c1ccc(F)cc1 (stereo not drawn) [Lu 20-033, 3-(4'-Fluorophenyl)-1-(1-hydroxyethyl-4-piperidyl)-6-methoxy-1-indene, hydrobromide] | 18.3 µmol/kg | 6.2 µmol/kg |  |
|  | O=C(CCCN1CCC(O)(c2ccc(Cl)cc2)CC1)c1ccc(F)cc1 [Haloperidol, reference compound] |  |  | ED50 (methylphenidate; [6]): 0.11 µmol/kg; ED50 ([1]; Rattus norvegicus, 6 h): 1 µmol/kg |
| 280 nM | Cc1ccc2c(c1)C(=C1CCN(CCO)CC1)C=C2c1ccc(F)cc1 [Lu 20-044, 3-(4'-Fluorophenyl)-1-(1-hydroxyethyl-4-piperidylidenyl)-6-methyl-2-indene,hydrobromide] | 5.1 µmol/kg |  |  |
| 1500 nM | O=C1NCCN1CCN1CCC(C2C=C(c3ccc(F)cc3)c3ccccc32)CC1 (stereo not drawn) [Lu 20-082, 3-(4'-Fluorophenyl)-1-(1-(2-imidazolidinon-1-ylethyl)-4-piperidyl)-2-indene] | 70.9 µmol/kg |  |  |
